Target: T1, human cathepsin B (Homo sapiens, UniProt P07858)
T1 construct: Cathepsin B purified from human liver (Sigma-Aldrich, St. Louis, MO, USA); purchased Sigma-Aldrich; host or cells: human liver
Test: Fluorogenic cathepsin-cleavage assay (Z-RR-AMC)
Assay type: biochemical
Settings: recombinant cathepsin B, in vitro
Excerpt: The fluorogenic cathepsin-cleavage assay was done as previously described using the cathepsin B cleavage substrate Z-Arg-Arg-7-amido-4-methylcoumarin hydrochloride (Z-RR-AMC; Sigma-Aldrich, St. Louis, MO, USA) and human cathepsin B with or without the cathepsin inhibitor CA-074Me (EMD Millipore, Burlington, MA, USA).

CCCNC(=O)[C@H]1O[C@@H]1C(=O)N[C@H](C(=O)N1CCC[C@H]1C(=O)OC)[C@@H](C)CC [CA-074Me]
inhibition of cathepsin B cleavage of fluorogenic reporter substrate: blocked reporter substrate cleavage
